These results are taken from patent publication US6310095A, “Inhibitors of protein isoprenyl transferases” (University of Pittsburgh, priority 1998, dated 2001).

Counter-ions that a name gives are not always drawn.

The target in one assay is T1, protein farnesyltransferase (Rattus norvegicus, UniProt Q02293+Q04631).
T1 construct: Rat brain protein farnesyltransferase activity is measured; from tissue; host or cells: rat brain; purified according to Reiss et al., Cell 62:81-88 (1990), steps one through three
The experiment in a line: in vitro inhibition of protein farnesyltransferase (scintillation proximity assay, biotin-K Ras B fragment). To be noted: at 1 × 10^-5 M. It counts as biochemical. In short, it runs like this: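 Scintillation proximity read-out of farnesylation, using a biotinylated K Ras B fragment (0.1 mM final) in place of biotin-lamin. Enzyme purified from rat brain; results given as % inhibition.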
In turn, `CSCC[C@H](NC(=O)c1ccc(CNc2cccc(CCC(=O)O)c2)cc1-c1ccccc1)C(=O)O` [Example 685] displayed an inhibition at 10 µM of 55%.
The same measure, in the same setting: next, `CSCC[C@H](NC(=O)c1ccc(CNc2cccc(CC(=O)O)c2)cc1-c1ccccc1)C(=O)O` [Example 684]: 48%; `CSCC[C@H](NC(=O)c1ccc(CNc2cc(C)ns2)cc1-c1ccccc1)C(=O)O` [Example 373]: 76%.
The same measure, in the same setting: next, `CSCC[C@H](NC(=O)c1ccc(CNCCN2CCCCC2)cc1-c1ccccc1)C(=O)O` [Example 366]: 83%.

The assay is the same for the next values; noted with them: at 1 × 10^-6 M.
Regarding `CSCC[C@H](NC(=O)c1ccc(COCCC23CC4CC(CC(C4)C2)C3)cc1-c1ccccc1C)C(=O)O` [Example 404], the “% inhibition of farnesyltransferase” value is 98%.
On the same count and under the same terms, next, “N-[4-(3-furan-2-yl-2-phenylprop-2-en-1-ylaminomethyl)-2-(2-methylphenyl)benzoyl]methionine lithium salt [Example 537]”: 97%.
Take `CSCC[C@H](NC(=O)c1ccc(CSCc2ccccc2)cc1-c1ccccc1C)C(=O)[O-].[Li+]` [Example 554]: the “% inhibition of farnesyltransferase” value is recorded as 96%.
Same read-out and setting: next, `CSCC[C@H](NC(=O)c1ccc(CS[C@H](CO)Cc2ccccc2)cc1-c1ccccc1)C(=O)O` [Example 545]: 88%.
Same read-out and setting: the same measure for `CSCC[C@H](NC(=O)c1ccc(COCc2ccc3ccccc3c2)cc1-c1ccccc1C)C(=O)[O-].[Li+]` [Example 583]: 98%.
For `CSCC[C@H](NC(=O)c1ccc(COCC2CCCO2)cc1-c1ccccc1)C(=O)O` (stereo partly drawn) [Example 288], the “% inhibition of farnesyltransferase” value is 22%.
Same read-out and setting: the same measure for `CSCC[C@H](NC(=O)c1ccc(COCc2ccccc2C)cc1-c1ccccc1C)C(=O)[O-].[Li+]` [Example 577]: 94%; for `CSCCC(NC(=O)c1ccc(CNC(CO)c2ccccc2)cc1-c1ccccc1)C(=O)O` (stereo not drawn) [Example 657]: 32%; for `CSCC[C@H](NC(=O)c1ccc(CN(C2CC2)C(C)(C)Cc2ccccc2)cc1-c1ccccc1C)C(=O)O` [Example 315]: 93%.
Same read-out and setting: the same measure for `CSCC[C@H](NC(=O)c1ccc(COCCc2ccccc2)cc1-c1ccccc1C)C(=O)[O-].[Li+]` [Example 587]: 97%; for `CCCCON(CCC1CCCCC1)Cc1ccc(C(=O)N[C@@H](CCS(C)(=O)=O)C(=O)O)c(-c2ccccc2C)c1` [Example 298]: 43%.
`CSCC[C@H](NC(=O)c1ccc(OCCCC2CCCCC2)cc1-c1ccccc1C)C(=O)O` [Example 564]: the “% inhibition of farnesyltransferase” value is 98%.
Still for that read-out and setting: next, `CSCCC(NC(=O)c1ccc(CNC(CO)c2ccccc2)cc1-c1ccccc1)C(=O)O` (stereo not drawn) [Example 658]: 73%.

The assay is the same for the next values; noted with them: at 1 × 10^-6 M; read-out: % inhibition of farnesyltransferase.
For `CSCC[C@H](NC(=O)c1ccc(NC[C@@H]2CSCN2)cc1-c1ccccc1)C(=O)O` [Example 166, [4-((R)-thiazolidin-4-ylmethyl)amino-2-phenylbenzoyl]methionine hydrochloride], the inhibition at 1 µM was determined as 97%.
`CSCC[C@H](NC(=O)c1ccc(CN(CCc2ccccc2)c2ccccc2)cc1-c1ccccc1C)C(=O)O` [Example 507]: the inhibition at 1 µM was 96%.
In the case of `CSCC[C@H](NC(=O)c1ccc(CN[C@@H](/C=C\CC(C)C)CC2CCCCC2)cc1-c1ccccc1)C(=O)O` [Example 665], the inhibition at 1 µM stood at 55%.
Same read-out and setting: next, `CSCC[C@H](NC(=O)c1ccc(CN(CCC2CCCCC2)C(=O)N(C)C)cc1-c1ccccc1C)C(=O)O` [Example 610, N-[4-(N-(N,N-dimethylaminocarbonyl)-N-(2-cyclohexylethyl)aminomethyl)-2-(2-methylphenyl)benzoyl]methionine]: 94%; `CSCC[C@H](NC(=O)c1ccc(CNc2ccccc2N2CCCCC2)cc1-c1ccccc1)C(=O)O` [Example 673]: 59%.
Same read-out and setting: the same measure for `CSCC[C@H](NC(=O)c1ccc(CN[C@H](CO)CC2CCCCC2)cc1-c1ccccc1C)C(=O)O` [Example 617, N-[4-(3-cyclohexylpropan-1-ol-2-ylaminomethyl)-2-(2-methylphenyl)benzoyl]methionine]: 99%; for `CSCC[C@H](NC(=O)c1ccc(CNCc2ccccc2)cc1-c1ccccc1)C(=O)O` [Example 936, N-[4-(N-benzylaminomethyl)-2-phenylbenzoyl]methionine hydrochloride salt]: 69%.

Staying with this assay, now noted: at 1 × 10^-7 M.
`CSCC[C@H](NC(=O)c1ccc(/C=C/c2ccc(Oc3cccc([N+](=O)[O-])c3)cc2)cc1-c1ccccc1C)C(=O)O` [Example 861]: the “% inhibition of farnesyltransferase” value came to 65%.
`CSCC[C@H](NC(=O)c1ccc(COC(Cc2ccccc2)Cc2ccccc2)cc1-c1ccccc1C)C(=O)[O-].[Li+]` [Example 522]: the “% inhibition of farnesyltransferase” value came out at 93%.
On the same count and under the same terms, next, `CSCC[C@H](NC(=O)c1ccc(CCc2ccc(Oc3ccccc3)nn2)cc1-c1ccccc1C)C(=O)O` [Example 811]: 85%; `CSCC[C@H](NC(=O)c1ccc(COCc2ccccc2)cc1-c1ccccc1C)C(=O)NS(=O)(=O)c1ccccc1` [Example 580]: 90%; `CSCC[C@H](NC(=O)c1ccc(COCc2ccc(-c3ccccc3C(F)(F)F)o2)cc1-c1ccccc1C)C(=O)[O-].[Li+]` [Example 438]: 90%.
The same measure, in the same setting: the same measure for `CSCC[C@H](NC(=O)c1ccc(COCc2ccc(Cl)cc2)cc1-c1ccccc1C)C(=O)[O-].[Li+]` [Example 933]: 91%; for `CSCC[C@H](NC(=O)c1ccc(CSCCc2ccccc2)cc1-c1ccccc1C)C(=O)[O-].[Li+]` [Example 562]: 95%.
Same read-out and setting: the same measure for `CSCC[C@H](NC(=O)c1ccc(COCc2ccc(-c3ccc(C(C)=O)cc3)o2)cc1-c1ccccc1C)C(=O)[O-].[Li+]` [Example 449]: 91%.
With `CSCC[C@H](NC(=O)c1ccc(CCc2ccc(C3CCCCC3)cc2)cc1-c1ccccc1C)C(=O)[O-].[Li+]` [Example 461], the “% inhibition of farnesyltransferase” value is given as 93%.
Turning to `CSCC[C@H](NC(=O)c1ccc(COc2ccc(Oc3ccccc3)cc2)cc1-c1ccccc1C)C(=O)[O-].[Li+]` [Example 795], the “% inhibition of farnesyltransferase” value turned out to be 87%.
Still for that read-out and setting: the same measure for `CSCC[C@H](NC(=O)c1ccc(CSc2nnc(N)s2)cc1-c1ccccc1C)C(=O)O` [Example 734]: 49%.

The same assay, now with this note: at 1 × 10^-7 M; read-out: % inhibition of farnesyltransferase.
For `CSCC[C@H](NC(=O)c1ccc(NC[C@@H]2C[C@H](S)CN2)cc1-c1ccccc1)C(=O)O` [Example 959, N-[4-((2S,4S)-4-thiolpyrrolidin-2-ylmethylamino)-2-phenylbenzoyl]methionine], the inhibition at 0.1 µM was greater than 50%.
Still for that read-out and setting: the same measure for `CCSC[C@H](CC1CCCCC1)N(Cc1ccc(C(=O)N[C@@H](CCSC)C(=O)O)c(-c2ccccc2C)c1)C(=O)c1ccccc1` [Example 949, N-[4-N-Benzoyl-N-(3-Cyclohexyl-1-ethylthiopropan-2-yl)aminomethyl-2-(2-methylphenyl)-benzoyl]methionine]: 57%.
With `CCCCN(CCCC)C(=O)CN(C)Cc1ccc(C(=O)N[C@@H](CCSC)C(=O)O)c(-c2ccccc2C)c1` [Example 913, N-[4-(N-(N,N-dibutylacetamido)-N-methylaminomethyl)-2-(2-methylphenyl)benzoyl]methionine], the inhibition at 0.1 µM turned out to be 89%.
Same read-out and setting: the same measure for `CSCC[C@H](NC(=O)c1ccc(NC(=O)CN)cc1-c1ccccc1)C(=O)O` [Example 748]: 56%; for `CCCCN(CCCC)Cc1ccc(C(=O)N[C@@H](CCSC)C(=O)O)c(-c2ccccc2C)c1` [Example 917, N-[4-(N,N-Dibutylaminomethyl)-2-(2-methylphenyl)benzoyl]methionine]: 78%.

Staying with this assay, now noted: at 1 × 10^-8 M.
Turning to `CSCC[C@H](NC(=O)c1ccc(COCc2oc(-c3ccc(Cl)cc3)c(Cl)c2Cl)cc1-c1ccccc1C)C(=O)[O-].[Li+]` [Example 829], the “% inhibition of farnesyltransferase” value stood at 92%.
The same measure, in the same setting: next, `CCCCC(OCc1ccc(C(=O)N[C@@H](CCSC)C(=O)O)c(-c2ccccc2C)c1)c1cncs1` (stereo partly drawn) [Example 985]: 89%.
Consider `CSCC[C@H](NC(=O)c1ccc(CSCc2ccccc2)cc1-c1ccccc1C)C(=O)NS(=O)(=O)c1ccc(C)cc1` [Example 586], for which the “% inhibition of farnesyltransferase” value was 90%.
The same measure, in the same setting: next, `CSCC[C@H](NC(=O)c1ccc(/C=C/c2ccc(Oc3cccc(Cl)c3)cc2)cc1-c1ccccc1C)C(=O)O` [Example 858]: 60%.

Staying with this assay, now noted: at 1 × 10^-8 M; read-out: % inhibition of farnesyltransferase.
Turning to `CSCC[C@H](NC(=O)c1ccc(CN(CCc2ccccc2)c2cncnc2)cc1-c1ccccc1C)C(=O)O` [Example 518, N-[4-N-(2-phenyethyl)-N-pyrimidin-5-ylaminomethyl-2-(2-methylphenyl)benzoyl]methionine lithium salt], the inhibition at 0.01 µM was 90%.
On the same count and under the same terms, next, `CC[C@H](CC1CCCCC1)NCc1ccc(C(=O)N[C@@H](CCSC)C(=O)O)c(-c2ccccc2C)c1` [Example 614, N-[4-(4-cyclohexylbutan-3-ylaminomethyl)-2-(2-methylphenyl)benzoyl]methionine Lithium Salt]: 92%; `C=C[C@H](CC1CCCCC1)NCc1ccc(C(=O)N[C@@H](CCSC)C(=O)O)c(-c2ccccc2C)c1` [Example 619, N-[4-(2-cyclohexylprop-1-en-2-ylaminomethyl)-2-(2-methylphenyl)benzoyl]methionine Lithium Salt]: 95%.

Staying with this assay, now noted: read-out: % inhibition of farnesyltransferase.
On to `CSCC[C@H](NC(=O)c1ccc(CN(Cc2ccccc2)c2ccc(SC)cc2)cc1-c1ccccc1C)C(=O)O` [Example 852, N-[4-(N-benzyl-N-(4-methylthiophenyl)aminomethyl)-2-(2-methylphenyl)benzoyl]methionine lithium salt], for which the inhibition at 0.01 µM worked out at 79%.
